Laboratory results: ChEMBL document CHEMBL1142813, “Synthesis of tripeptides as potent Yersinia protein tyrosine phosphatase inhibitors” (Bioorg Med Chem Lett, 2005)

Legend:
[1] = target: Secreted effector protein (Yersinia pestis, UniProt O68720); assay: Inhibitory concentration against Yersinia pestis YopH expressed in Escherichia coli BL21 cells
[2] = target: T1, Tyrosine-protein phosphatase non-receptor type 1 (Homo sapiens, UniProt P18031); assay: Inhibitory concentration against human PTP1B expressed in Escherichia coli BL21 cells
T1 sequence (P18031 whole entry): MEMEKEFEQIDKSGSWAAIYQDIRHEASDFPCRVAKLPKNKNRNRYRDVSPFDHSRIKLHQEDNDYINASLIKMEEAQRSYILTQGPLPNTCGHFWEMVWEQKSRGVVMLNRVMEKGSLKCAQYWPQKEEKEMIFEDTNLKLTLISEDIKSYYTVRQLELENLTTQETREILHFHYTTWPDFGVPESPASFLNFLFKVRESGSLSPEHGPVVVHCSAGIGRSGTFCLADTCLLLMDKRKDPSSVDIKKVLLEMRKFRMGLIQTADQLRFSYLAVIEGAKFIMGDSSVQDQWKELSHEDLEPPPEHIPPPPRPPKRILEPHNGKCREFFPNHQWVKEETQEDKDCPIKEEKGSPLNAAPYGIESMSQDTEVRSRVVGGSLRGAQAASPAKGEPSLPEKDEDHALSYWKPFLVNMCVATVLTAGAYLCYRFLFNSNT

Chain of Secreted effector protein (O68720 whole entry): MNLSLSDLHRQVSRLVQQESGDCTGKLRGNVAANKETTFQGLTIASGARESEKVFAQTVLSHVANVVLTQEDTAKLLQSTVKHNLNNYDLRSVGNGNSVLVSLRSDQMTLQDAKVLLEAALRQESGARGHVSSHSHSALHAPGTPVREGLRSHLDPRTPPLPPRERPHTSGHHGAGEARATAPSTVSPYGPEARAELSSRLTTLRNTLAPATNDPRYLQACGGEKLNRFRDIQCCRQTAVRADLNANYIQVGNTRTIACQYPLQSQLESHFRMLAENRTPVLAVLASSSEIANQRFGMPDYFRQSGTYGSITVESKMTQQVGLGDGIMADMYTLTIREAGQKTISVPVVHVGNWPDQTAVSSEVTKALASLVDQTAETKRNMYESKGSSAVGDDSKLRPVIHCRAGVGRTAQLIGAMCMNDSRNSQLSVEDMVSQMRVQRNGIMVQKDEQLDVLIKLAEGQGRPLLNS

| SMILES | IC50 [1] [µM] | IC50 [2] [µM] |
| --- | --- | --- |
| Cc1ccc2c(c1)CCN2CCC(=O)N[C@@H](CCC(=O)OCc1ccccc1)C(=O)N[C@@H](Cc1ccc(OCC(=O)O)cc1)C(=O)C[C@@H](CC(C)C)C(N)=O | 5.6 | 4.3 |
| CC(C)C[C@H](CC(=O)[C@H](Cc1ccc(OCC(=O)O)cc1)NC(=O)[C@H](CCC(=O)OCc1ccccc1)NC(=O)COc1cccc2ccccc12)C(N)=O | 20 | 13 |
| CC(C)C[C@H](CC(=O)[C@H](Cc1ccc(OCC(=O)O)cc1)NC(=O)[C@H](CCC(=O)OCc1ccccc1)NC(=O)CCCc1c[nH]c2ccccc12)C(N)=O | > 100 | > 100 |
| CC(C)C[C@H](CC(=O)[C@H](Cc1ccc(OCC(=O)O)cc1)NC(=O)[C@H](CCC(=O)OCc1ccccc1)NC(=O)CCc1c[nH]c2ccccc12)C(N)=O | > 100 | > 100 |
| CC(C)C[C@H](CC(=O)[C@H](Cc1ccc(OCC(=O)O)cc1)NC(=O)[C@H](CCC(=O)OCc1ccccc1)NC(=O)OCC1c2ccccc2-c2ccccc21)C(N)=O | 1.8 | 2.9 |
| COc1ccc(Cn2nnc(CC(=O)N[C@@H](CCC(=O)OCc3ccccc3)C(=O)N[C@@H](Cc3ccc(OCC(=O)O)cc3)C(=O)C[C@@H](CC(C)C)C(N)=O)n2)cc1 | > 100 | > 100 |
| CC(C)C[C@H](CC(=O)[C@H](Cc1ccc(C(F)(F)C(=O)O)cc1)NC(=O)[C@H](CCC(=O)OCc1ccccc1)NC(=O)OCC1c2ccccc2-c2ccccc21)C(N)=O | 2.5 | 3.1 |
| CC(C)C[C@H](CC(=O)[C@H](Cc1ccc(OC(F)(F)C(=O)O)cc1)NC(=O)[C@H](CCC(=O)OCc1ccccc1)NC(=O)OCC1c2ccccc2-c2ccccc21)C(N)=O | 1.9 | 3.8 |
| CC(C)C[C@H](CC(=O)[C@H](Cc1ccc(OCC(=O)O)cc1)NC(=O)[C@H](CNC(=O)OCc1ccccc1)NC(=O)OCC1c2ccccc2-c2ccccc21)C(N)=O | 2.1 | 4.3 |
| CC(C)C[C@H](NC(=O)[C@H](Cc1ccc(OCC(=O)O)cc1)NC(=O)C(CNC(=O)OCc1ccccc1)CNC(=O)OCc1ccccc1)C(N)=O | 4 | 2.8 |
| Cc1cn(CC(=O)N[C@@H](CCC(=O)OCc2ccccc2)C(=O)N[C@@H](Cc2ccc(OCC(=O)O)cc2)C(=O)C[C@@H](CC(C)C)C(N)=O)c(=O)[nH]c1=O | > 100 | > 100 |
| CC(C)C[C@H](CC(=O)[C@H](Cc1ccc(CC(=O)O)cc1)NC(=O)[C@H](CCC(=O)OCc1ccccc1)NC(=O)OCC1c2ccccc2-c2ccccc21)C(N)=O | 2.4 | 4.6 |
| CC(C)C[C@H](CC(=O)[C@H](Cc1ccc(OCC(=O)O)cc1)NC(=O)[C@H](CCC(=O)OCc1ccccc1)NC(=O)COc1ccc2ccccc2c1)C(N)=O | 30 | 23 |
| CC(C)C[C@H](CC(=O)[C@H](Cc1ccc(OCC(=O)O)cc1)NC(=O)[C@H](CCC(=O)OCc1ccccc1)NC(=O)CCc1cccc2ccccc12)C(N)=O | 18 | 12 |
| CC(C)C[C@H](CC(=O)[C@H](Cc1ccc(OCC(=O)O)cc1)NC(=O)[C@H](CCC(=O)OCc1ccccc1)NS(=O)(=O)CCc1cccc2ccccc12)C(N)=O | 22 | 24 |
| CC(C)C[C@H](CC(=O)[C@H](Cc1ccc(OCC(=O)O)cc1)NC(=O)[C@H](CCC(=O)OCc1ccccc1)NC(=O)CCc1c2ccccc2cc2ccccc12)C(N)=O | 12 | 6.4 |
